This series in a line: Titration of polyelectrolytes and ICs with MG (zeta potential, Dh, I/c). The class given is physicochemical. As to conditions: titration of PAA-b-PEO, PArg and ICs with MG, 10 mM NaCl. The method, then:
Dynamic (DLS) and static (SLS) light scattering measurements were performed with Brookhaven Instruments, 488 nm and 633 nm, 15 W Ion Laser System, equipped with Avalanche Photodiode Detector; DLS measurements were conducted at 90° detection angle. The light scattering titrations were performed with Malvern Zetasizer equipped with auto-titrator, at detection angle of 173°. Samples from loading experiments were analyzed with Shimadzu UV spectrophotometer (UV-3600).
MG was loaded into the ICs by simple mixing the respective solutions at predetermined ratios. FIG. 3 presents the results of titrations of the polyelectrolytes and ICs consisting of these polyelectrolytes with MG. Upon mixing, we observed no change in zeta potential except for slight increase in case of PArg at the beginning of titration. […] We observed small changes in hydrodynamic diameter (DO and normalized scattering intensity (I/c) of the aggregates, indicating bonding. This was later confirmed with NR studies.

On to `COc1ccc(O[C@@H]2O[C@H](CO)[C@@H](O)[C@H](O)[C@H]2O)cc1` [MG, 4-methoxyphenyl β-D-glucopyranoside], for which the “chargeability of MG (zeta potential upon mixing)” value is recorded as “not chargeable”.

The values above are taken from US20200085705A1, “Method of Encapsulating Compounds” (AGENCY FOR SCIENCE, TECHNOLOGY AND RESEARCH, priority 2016, published 2020).
